Consider 15 molecules from patent EP4603105A1, “PHARMACEUTICAL COMPOSITION CONTAINING CYCLIC COMPOUND HAVING SELECTIVE KRAS INHIBITORY EFFECT AGAINST HRAS AND NRAS” (CHUGAI SEIYAKU KABUSHIKI KAISHA, priority 2022, dated 2024).

pIC50: −log10 of the molar value.

The target in assay [1] is HRAS wild-type protein (Homo sapiens, UniProt P01112). Kind of assay: Binding to HRAS by surface plasmon resonance (SPR), KD and KD ratio to KRAS. To be noted: ratio of the KD value with respect to HRAS wild-type protein to the KD value with respect to KRAS. The essentials: (§1)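 Affinity is measured by surface plasmon resonance at 30°C against captured, GDP-loaded RAS carrying a biotinylated Avi tag. Compounds are titrated by single-cycle kinetics, and KD comes from a 1:1 fit.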
HRAS wild-type protein, sequence (P01112 whole entry): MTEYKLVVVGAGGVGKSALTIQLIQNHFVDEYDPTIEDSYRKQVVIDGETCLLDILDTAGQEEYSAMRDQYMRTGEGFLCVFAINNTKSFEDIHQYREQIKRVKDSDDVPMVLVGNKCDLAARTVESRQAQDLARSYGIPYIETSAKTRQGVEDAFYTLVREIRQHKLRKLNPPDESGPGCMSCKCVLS
In general terms: SPR reads the build-up and loss of mass on a sensor chip optically.

Assay [2] concerns the target GDP-bound NRAS wild-type protein (Homo sapiens, UniProt P01111). Description: Binding to NRAS by surface plasmon resonance (SPR), KD and KD ratio to KRAS. The following applies: ratio of the KD value with respect to GDP-bound NRAS wild-type protein to the KD value with respect to KRAS. The gist of the method: as §1
Assay [3] relates to human lung cancer strain NCI-H441. In kind it is cell-based. The gist of the method: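 Readout: […] after the ATP-based reagent. Compound: serial dilutions in dimethyl sulfoxide.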

GDP-bound NRAS wild-type protein, sequence (P01111 whole entry): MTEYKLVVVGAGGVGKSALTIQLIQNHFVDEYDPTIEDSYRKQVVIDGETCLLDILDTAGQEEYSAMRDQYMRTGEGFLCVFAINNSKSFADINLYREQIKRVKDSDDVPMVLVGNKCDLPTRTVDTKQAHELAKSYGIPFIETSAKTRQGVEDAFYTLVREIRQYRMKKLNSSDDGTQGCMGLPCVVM

`C#CC[C@H]1C(=O)N[C@@H]([C@@H](C)CC)C(=O)N(C)CC(=O)N(C)[C@H]2C/C=C\CCN(C2=O)[C@@H](Cc2ccc(C(F)(F)F)cc2)C(=O)N(C)CC(=O)N[C@@H](CCc2ccc(C(F)(F)F)c(OC)c2)C(=O)N2C[C@@H](C)C[C@H]2C(=O)NC2(CC(C)(C)C2)C(=O)N(C)[C@@H](C2CCCC2)C(=O)N(C)[C@H](C(=O)N(C)CC)CC(=O)N1C` [PP2055]: the “HRAS /KRAS” value in assay [1] is “B (a compound having 3 or more and less than 10 is denoted as B)”. Besides, in assay [2], the “NRAS /KRAS” value was “A (a compound having 10 or more and less than 20 is denoted as A)”. In addition, the pIC50 (in general, the negative decadic logarithm of the IC50, by convention in mol/L) in assay [3] is 7.79.
As for `C#CC[C@H]1C(=O)N[C@@H]([C@@H](C)CC)C(=O)N(C)CC(=O)N(C)[C@H]2C/C=C\CCN(C2=O)[C@@H](Cc2ccc(C(F)(F)F)cc2)C(=O)N(C)CC(=O)N[C@@H](CCc2ccc(C(F)(F)F)c(OC)c2)C(=O)N2C[C@H](OCC)C[C@H]2C(=O)NC2(CCC2)C(=O)N(C)[C@@H](C2CCCC2)C(=O)N(C)[C@H](C(=O)N(C)CCC)CC(=O)N1C` [PP2059], the “HRAS /KRAS” value in assay [1] is “A (a compound having 10 or more and less than 20 is denoted as A)”. Further, in assay [2], the “NRAS /KRAS” value was “A (a compound having 10 or more and less than 20 is denoted as A)”. The pIC50 in assay [3] was 8.31.
Turning to `C#CC[C@H]1C(=O)N[C@@H]([C@@H](C)CC)C(=O)N(C)CC(=O)N(C)[C@H]2C/C=C\CCN(C2=O)[C@@H](Cc2ccc(C(F)(F)F)cc2)C(=O)N(C)CC(=O)N[C@@H](CCc2ccc(C(F)(F)F)c(OC)c2)C(=O)N2C[C@@H](C)C[C@H]2C(=O)NC2(CCC2)C(=O)N(C)[C@@H](C2CCCC2)C(=O)N(C)[C@H](C(=O)N(C)CC)CC(=O)N1C` [PP2061], the “HRAS /KRAS” value in assay [1] was “A (a compound having 10 or more and less than 20 is denoted as A)”. Besides, the “NRAS /KRAS” value in assay [2] is recorded as “AA (a compound having 20 or more is denoted as AA)”. The same molecule showed a pIC50 in assay [3] of 8.21.
As to `CCO[C@@H]1C[C@H]2C(=O)NC3(CC(C)(C)C3)C(=O)N(C)[C@@H](C(CC)CC)C(=O)N(C)[C@H](C(=O)N(C)C)CC(=O)N(C)[C@@H](CC)C(=O)N[C@@H]([C@@H](C)CC)C(=O)N(C)CC(=O)N(C)[C@H]3C/C=C\CCN(C3=O)[C@@H](Cc3ccc(C(F)(F)F)cc3)C(=O)N(C)CC(=O)N[C@@H](CCc3cc(F)c(C(F)(F)F)c(F)c3)C(=O)N2C1` [PP2062], the “HRAS /KRAS” value in assay [1] is “A (a compound having 10 or more and less than 20 is denoted as A)”. Also, in assay [2], the “NRAS /KRAS” value is listed as “AA (a compound having 20 or more is denoted as AA)”. In assay [3], this molecule gave a pIC50 of 7.86.
As for `CC[C@H](C)[C@@H]1NC(=O)[C@H](C(C)C)N(C)C(=O)C[C@@H](C(=O)N(C)CC)N(C)C(=O)[C@H](C2CCCC2)N(C)C(=O)C2(CCC2)NC(=O)[C@@H]2C[C@H](C)CN2C(=O)[C@H](CCc2ccc(C(F)(F)F)c(OC)c2)NC(=O)CN(C)C(=O)[C@H](Cc2ccc(C(F)(F)F)cc2)N2CC/C=C\C[C@@H](C2=O)N(C)C(=O)CN(C)C1=O` [PP2065], the “HRAS /KRAS” value in assay [1] is “B (a compound having 3 or more and less than 10 is denoted as B)”. In addition, the “NRAS /KRAS” value in assay [2] is “A (a compound having 10 or more and less than 20 is denoted as A)”. In addition, the pIC50 in assay [3] was 7.77.
`CCO[C@@H]1C[C@H]2C(=O)NC3(CC(C)(C)C3)C(=O)N(C)[C@@H](C(CC)CC)C(=O)N(C)[C@H](C(=O)N(C)C)CC(=O)N(C)[C@@H](CC)C(=O)N[C@@H]([C@@H](C)CC)C(=O)N(C)CC(=O)N(C)[C@H]3C/C=C\CCN(C3=O)[C@@H](Cc3ccc(C(F)(F)F)cc3)C(=O)N(C)CC(=O)N[C@@H](CCc3ccc(C(F)(F)F)c(OC)c3)C(=O)N2C1` [PP2066]: in assay [1], the “HRAS /KRAS” value is “B (a compound having 3 or more and less than 10 is denoted as B)”. Moreover, the “NRAS /KRAS” value in assay [2] is “A (a compound having 10 or more and less than 20 is denoted as A)”. Moreover, the pIC50 in assay [3] is 8.49.
`CCCN(C)C(=O)[C@@H]1CC(=O)N(C)[C@@H](C(C)C)C(=O)N[C@@H]([C@@H](C)CC)C(=O)N(C)CC(=O)N(C)[C@H]2C/C=C\CCN(C2=O)[C@@H](Cc2ccc(C(F)(F)F)cc2)C(=O)N(C)CC(=O)N[C@@H](CCc2ccc(C(F)(F)F)c(OC)c2)C(=O)N2C[C@@H](C)C[C@H]2C(=O)NC2(CCC2)C(=O)N(C)[C@@H](C2CCCC2)C(=O)N1C` [PP2067]: the “HRAS /KRAS” value in assay [1] was “A (a compound having 10 or more and less than 20 is denoted as A)”. Also, the “NRAS /KRAS” value in assay [2] is given as “AA (a compound having 20 or more is denoted as AA)”. In addition, in assay [3], the pIC50 was 7.75.
`CCC[C@H]1C(=O)N[C@@H]([C@@H](C)CC)C(=O)N(C)CC(=O)N(C)[C@H]2C/C=C\CCN(C2=O)[C@@H](Cc2ccc(C)cc2)C(=O)N(C)CC(=O)N[C@@H](CCc2ccc(C(F)(F)F)c(OC)c2)C(=O)N2C[C@H](OCC)C[C@H]2C(=O)NC2(CC(C)(C)C2)C(=O)N(C)[C@@H](C(CC)CC)C(=O)N(C)[C@H](C(=O)N(C)C)CC(=O)N1C` [PP2068]: the “HRAS /KRAS” value in assay [1] was “B (a compound having 3 or more and less than 10 is denoted as B)”. The “NRAS /KRAS” value in assay [2] is “A (a compound having 10 or more and less than 20 is denoted as A)”. Moreover, in assay [3], the pIC50 was 7.95.
With `CC[C@H](C)[C@@H]1NC(=O)[C@H](C2CC2)N(C)C(=O)C[C@@H](C(=O)N(C)CC)N(C)C(=O)[C@H](C2CCCC2)N(C)C(=O)C2(CCC2)NC(=O)[C@@H]2C[C@H](C)CN2C(=O)[C@H](CCc2ccc(C(F)(F)F)c(OC)c2)NC(=O)CN(C)C(=O)[C@H](Cc2ccc(C(F)(F)F)cc2)N2CC/C=C\C[C@@H](C2=O)N(C)C(=O)CN(C)C1=O` [PP2069], the “HRAS /KRAS” value in assay [1] was “A (a compound having 10 or more and less than 20 is denoted as A)”. Besides, the “NRAS /KRAS” value in assay [2] is given as “AA (a compound having 20 or more is denoted as AA)”. Besides, the pIC50 in assay [3] was 7.56.
Consider `CCCN(C)C(=O)[C@@H]1CC(=O)N(C)[C@@H](C2CC2)C(=O)N[C@@H]([C@@H](C)CC)C(=O)N(C)CC(=O)N(C)[C@H]2C/C=C\CCN(C2=O)[C@@H](Cc2ccc(C(F)(F)F)cc2)C(=O)N(C)CC(=O)N[C@@H](CCc2ccc(C(F)(F)F)c(OC)c2)C(=O)N2C[C@@H](C)C[C@H]2C(=O)NC2(CCC2)C(=O)N(C)[C@@H](C2CCCC2)C(=O)N1C` [PP2070], for which, in assay [1], the “HRAS /KRAS” value is “A (a compound having 10 or more and less than 20 is denoted as A)”. For the same molecule, the “NRAS /KRAS” value in assay [2] was “A (a compound having 10 or more and less than 20 is denoted as A)”. Further, in assay [3], the pIC50 was 7.95.
Take `CC[C@H](C)[C@@H]1NC(=O)[C@H](C2CCC2)N(C)C(=O)C[C@@H](C(=O)N(C)CC)N(C)C(=O)[C@H](C2CCCC2)N(C)C(=O)C2(CCC2)NC(=O)[C@@H]2C[C@H](C)CN2C(=O)[C@H](CCc2ccc(C(F)(F)F)c(OC)c2)NC(=O)CN(C)C(=O)[C@H](Cc2ccc(C(F)(F)F)cc2)N2CC/C=C\C[C@@H](C2=O)N(C)C(=O)CN(C)C1=O` [PP2071]: the “HRAS /KRAS” value in assay [1] was “A (a compound having 10 or more and less than 20 is denoted as A)”. Also, the “NRAS /KRAS” value in assay [2] is “A (a compound having 10 or more and less than 20 is denoted as A)”. For the same molecule, in assay [3], the pIC50 is 8.21.
Consider `CCCN(C)C(=O)[C@@H]1CC(=O)N(C)[C@@H](C2CCC2)C(=O)N[C@@H]([C@@H](C)CC)C(=O)N(C)CC(=O)N(C)[C@H]2C/C=C\CCN(C2=O)[C@@H](Cc2ccc(C(F)(F)F)cc2)C(=O)N(C)CC(=O)N[C@@H](CCc2ccc(C(F)(F)F)c(OC)c2)C(=O)N2C[C@@H](C)C[C@H]2C(=O)NC2(CCC2)C(=O)N(C)[C@@H](C2CCCC2)C(=O)N1C` [PP2072], for which the “HRAS /KRAS” value in assay [1] was “A (a compound having 10 or more and less than 20 is denoted as A)”. Moreover, the “NRAS /KRAS” value in assay [2] was “A (a compound having 10 or more and less than 20 is denoted as A)”. In assay [3], the pIC50 was 8.07.
With `C#CC[C@H]1C(=O)N[C@@H]([C@@H](C)CC)C(=O)N(C)CC(=O)N(C)[C@H]2C/C=C\CCN(C2=O)[C@@H](Cc2ccc(C(F)(F)F)cc2)C(=O)N(C)CC(=O)N[C@@H](CCc2cc(F)c(C(F)(F)F)c(F)c2)C(=O)N2C[C@H](OCC)C[C@H]2C(=O)NC2(CC(C)(C)C2)C(=O)N(C)[C@@H](C2CCCC2)C(=O)N(C)[C@H](C(=O)N(C)CC)CC(=O)N1C` [PP2073], the “HRAS /KRAS” value in assay [1] is “A (a compound having 10 or more and less than 20 is denoted as A)”. Moreover, the “NRAS /KRAS” value in assay [2] was “A (a compound having 10 or more and less than 20 is denoted as A)”. In assay [3], this molecule showed a pIC50 of 8.46.
In the case of `C#CC[C@H]1C(=O)N[C@@H]([C@@H](C)CC)C(=O)N(C)CC(=O)N(C)[C@H]2C/C=C\CCN(C2=O)[C@@H](Cc2ccc(C(F)(F)F)cc2)C(=O)N(C)CC(=O)N[C@@H](CCc2cc(F)c(C(F)(F)F)c(F)c2)C(=O)N2C[C@H](OCC)C[C@H]2C(=O)NC2(CC(C)(C)C2)C(=O)N(C)[C@@H](C2CCCC2)C(=O)N(C)[C@H](C(=O)N(C)CCC)CC(=O)N1C` [PP2074], the “HRAS /KRAS” value in assay [1] was “A (a compound having 10 or more and less than 20 is denoted as A)”. Also, the “NRAS /KRAS” value in assay [2] was “A (a compound having 10 or more and less than 20 is denoted as A)”. This molecule also had a pIC50 in assay [3] of 8.23.
For `C#CC[C@H]1C(=O)N[C@@H]([C@@H](C)CC)C(=O)N(C)CC(=O)N(C)[C@H]2C/C=C\CCN(C2=O)[C@@H](Cc2ccc(C(F)(F)F)cc2)C(=O)N(C)CC(=O)N[C@@H](CCc2cc(F)c(C(F)(F)F)c(F)c2)C(=O)N2C[C@@H](C)C[C@H]2C(=O)NC2(CC(C)(C)C2)C(=O)N(C)[C@@H](C2CCCC2)C(=O)N(C)[C@H](C(=O)N(C)CC)CC(=O)N1C` [PP2075], the “HRAS /KRAS” value in assay [1] was “A (a compound having 10 or more and less than 20 is denoted as A)”. Also, the “NRAS /KRAS” value in assay [2] is “A (a compound having 10 or more and less than 20 is denoted as A)”. The same molecule had a pIC50 in assay [3] of 7.93.
